Measured values taken from patent publication US11051515B2, “3-acyl-benzamides and their use as herbicides” (Bayer Aktiengesellschaft, priority 2017, dated 2021).

Columns and labels:
DIGSA [1] = assay: Pre-emergence action against DIGSA; assay type: in vivo, Digitaria sanguinalis; conditions: dosage 320 g/ha, scored visually after 3 weeks vs untreated controls
From the text: Seeds of monocotyledonous and dicotyledonous weed plants and crop plants are laid out in sandy loam soil in wood-fiber pots and covered with soil. The compounds of the invention, formulated in the form of wettable powders (WP) or as emulsion concentrates (EC), are then applied to the surface of the covering soil in the form of an aqueous suspension or emulsion at a water application rate equating to […], with addition of 0.2% wetting agent. After the treatment, the pots are placed in a greenhouse and kept under good growth conditions for the trial plants. The damage to the test plants is scored visually after a test period of 3 weeks by comparison with untreated controls (herbicidal activity in percent (%): 100% activity=the plants have died, 0% activity=like control plants).

ECHCG [2] = assay: Pre-emergence action against ECHCG; assay type: in vivo, Echinochloa crus-galli; conditions: pre-emergence, dosage 320 g/ha, scored visually after 3 weeks vs untreated controls
Outline: (§1)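 Seeds sown in sandy loam in wood-fiber pots and covered with soil. Greenhouse growth; visual damage scored after 3 weeks versus untreated controls (100% = dead, 0% = like control).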

SETVI = assay: Pre-emergence action against SETVI; assay type: in vivo, Setaria viridis; conditions: pre-emergence, dosage 320 g/ha, scored visually after 3 weeks vs untreated controls
Outline: as §1

ABUTH [3] = assay: Pre-emergence action against ABUTH; assay type: in vivo, Abutilon theophrasti; conditions: pre-emergence, dosage 320 g/ha, scored visually after 3 weeks vs untreated controls
Outline: as §1

AMARE [4] = assay: Pre-emergence action against AMARE; assay type: in vivo, Amaranthus retroflexus; conditions: pre-emergence, dosage 320 g/ha, scored visually after 3 weeks vs untreated controls
Outline: as §1

MATIN [5] = assay: Pre-emergence action against MATIN; assay type: in vivo, Matricaria inodora; conditions: Dosage 320 g/ha, pre-emergence
Outline: as §1

STEME [6] = assay: Pre-emergence action against STEME; assay type: in vivo, Stellaria media; conditions: Dosage 320 g/ha, pre-emergence
Outline: as §1

VIOTR [7] = assay: Pre-emergence action against VIOTR; assay type: in vivo, Viola tricolor; conditions: Dosage 320 g/ha, pre-emergence
Outline: as §1

DIGSA [8] = assay: Post-emergence action against DIGSA; assay type: in vivo, Digitaria sanguinalis; conditions: dosage 80 g/ha, visual assessment about 3 weeks after treatment vs untreated controls
Procedure: Seeds of monocotyledonous and dicotyledonous weed and crop plants are laid out in sandy loam soil in wood-fiber pots, covered with soil and cultivated in a greenhouse under good growth conditions. 2 to 3 weeks after sowing, the test plants are treated at the one-leaf stage. The compounds of the invention, formulated in the form of wettable powders (WP) or as emulsion concentrates (EC), are then sprayed onto the green parts of the plants in the form of an aqueous suspension or emulsion at a water application rate equating to […], with addition of 0.2% wetting agent. After the test plants have been left to stand in the greenhouse under optimal growth conditions for about 3 weeks, the action of the preparations is assessed visually in comparison to untreated controls (herbicidal action in percent (%): 100% activity=the plants have died, 0% activity=like control plants). […] At the same time, inventive compounds leave Gramineae crops such as barley, wheat, rye, millet/Sorghum, corn or rice virtually undamaged when applied post-emergence, even at high active ingredient dosages. In addition, some substances are also harmless to dicotyledonous crops such as soya, cotton, oilseed rape, sugar beet or potatoes. Some of the compounds according to the invention have high selectivity and are therefore suitable for controlling unwanted vegetation in agricultural crops by the post-emergence method. The data of Tables B18 to B34 below illustrate, in an exemplary manner, the […] herbicidal action of the compounds according to the invention, the herbicidal activity being stated in percent.

ECHCG [9] = assay: Post-emergence action against ECHCG; assay type: in vivo, Echinochloa crus-galli; conditions: post-emergence, dosage 80 g/ha, visual assessment about 3 weeks after treatment vs untreated controls
Outline: (§2)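 Post-emergence foliar spray on greenhouse plants at the one-leaf stage, using wettable-powder or emulsion-concentrate formulations in water (600 to […], plus 0.2% wetting agent). Damage scored by eye roughly 3 weeks later against untreated plants: 0% = like control, 100% = dead.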

ABUTH [10] = assay: Post-emergence action against ABUTH; assay type: in vivo, Abutilon theophrasti; conditions: post-emergence, dosage 80 g/ha, visual assessment about 3 weeks after treatment vs untreated controls
Outline: as §2

AMARE [11] = assay: Post-emergence action against AMARE; assay type: in vivo, Amaranthus retroflexus; conditions: post-emergence, dosage 80 g/ha, visual assessment about 3 weeks after treatment vs untreated controls
Outline: as §2

MATIN [12] = assay: Post-emergence action against MATIN; assay type: in vivo, Matricaria inodora; conditions: post-emergence, dosage 80 g/ha, visual assessment about 3 weeks after treatment vs untreated controls
Outline: as §2

PHBPU = assay: Post-emergence action against PHBPU; assay type: in vivo, Pharbitis purpurea; conditions: post-emergence, dosage 80 g/ha
Outline: as §2

STEME [13] = assay: Post-emergence action against STEME; assay type: in vivo, Stellaria media; conditions: post-emergence, dosage 80 g/ha
Outline: as §2

VIOTR [14] = assay: Post-emergence action against VIOTR; assay type: in vivo, Viola tricolor; conditions: post-emergence, dosage 80 g/ha
Outline: as §2

Compound	Pre-emergence action against DIGSA (herbicidal activity) (DIGSA [1])	Pre-emergence action against ECHCG (herbicidal activity) (ECHCG [2])	SETVI (Table B8, pre-emergence herbicidal activity) (SETVI)	Pre-emergence action against ABUTH (herbicidal activity) (ABUTH [3])	Pre-emergence action against AMARE (herbicidal activity) (AMARE [4])	Pre-emergence action against MATIN (MATIN [5])	Pre-emergence action against STEME (STEME [6])	Pre-emergence action against VIOTR (VIOTR [7])	Post-emergence action against DIGSA (herbicidal action in percent) (DIGSA [8])	Post-emergence action against ECHCG (herbicidal action in percent) (ECHCG [9])	Post-emergence action against ABUTH (herbicidal action in percent) (ABUTH [10])	Post-emergence action against AMARE (herbicidal action in percent) (AMARE [11])	Post-emergence action against MATIN (herbicidal action in percent) (MATIN [12])	Post-emergence action against PHBPU (PHBPU)	Post-emergence action against STEME (STEME [13])	Post-emergence action against VIOTR (VIOTR [14])
CCCn1nnnc1NC(=O)c1ccc(C(F)(F)F)c(C(=O)C2CCC2)c1SC [3-280]	100%	80%	100%	100%	100%	90%	100%	100%	80%	80%	100%	100%	90%	80	100	80
CCCn1nnnc1NC(=O)c1ccc(C(F)(F)F)c(C(=O)C2CCC2)c1Cl [3-153]	100%		80%	100%	100%	90%		100%	80%		100%	100%	100%		100	
